Laboratory results taken from PubChem BioAssay (NCI).
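The compound was tested at five concentrations on cells cultured in 96-well plates, with a 48-hour exposure period. GI50 marks 50% less growth. At the TGI there is no net growth.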

Columns and labels:
Experiment in all cases: DTP human tumour cell line panel, 48 h
[1] = system: SK-MEL-2 melanoma
[2] = system: SK-MEL-5 melanoma
[3] = system: OVCAR-4 ovarian
[4] = system: IGROV1 ovarian
[5] = system: HOP-62 NSCLC
[6] = system: EKVX NSCLC
[7] = system: HS 578T breast
[8] = system: OVCAR-8 ovarian
[9] = system: LOX IMVI melanoma
[10] = system: KM12 colon
[11] = system: UO-31 renal
[12] = system: NCI-H23 lung
[13] = system: UACC-62 melanoma
[14] = system: M14 melanoma
[15] = system: PC-3 prostate
[16] = system: ACHN renal
[17] = system: CCRF-CEM leukemia
[18] = system: A549 NSCLC
[19] = system: OVCAR-3 ovarian
[20] = system: NCI-H226 lung
[21] = system: SR leukemia
[22] = system: OVCAR-5 ovarian
[23] = system: NCI/ADR-RES ovarian
[24] = system: HCC-2998 colon
[25] = system: HOP-92 NSCLC
[26] = system: SK-OV-3 ovarian
[27] = system: MOLT-4 leukemia
[28] = system: SN12C renal
[29] = system: TK-10 renal
[30] = system: SNB-19 CNS
[31] = system: SF-539 CNS
[32] = system: SNB-75 CNS
[33] = system: SK-MEL-28 melanoma
[34] = system: U251 CNS
[35] = system: HCT-15 colon
[36] = system: K-562 leukemia
[37] = system: T-47D breast
[38] = system: SW-620 colon
[39] = system: 786-0 renal
[40] = system: RXF 393 renal
[41] = system: NCI-H460 lung
[42] = system: NCI-H522 lung
[43] = system: DU-145 prostate
[44] = system: UACC-257 melanoma
[45] = system: BT-549 breast
[46] = system: MDA-MB-435
[47] = system: SF-268 CNS
[48] = system: HCT-116 colon
[49] = system: RPMI-8226 leukemia
[50] = system: MCF7 breast
[51] = system: HT29 colon
[52] = system: HL-60(TB) leukemia
[53] = system: MDA-MB-231 breast
[54] = system: COLO 205 colon
[55] = system: MALME-3M melanoma
[56] = system: SF-295 CNS
[57] = system: CAKI-1 renal

## CCCCNC(=O)Oc1ccc(/C(=C(/CC)Cc2ccccc2)c2ccc(OCCN3CCCCCC3)cc2)cc1
[1]
  GI50: 71.9 µM
  TGI: > 100 µM
[2]
  GI50: 19.9 µM
  TGI: 39.1 µM
[3]
  GI50: 19.2 µM
  TGI: 51.3 µM
[4]
  GI50: 30.5 µM
  TGI: > 100 µM
[5]
  GI50: 70.8 µM
  TGI: > 100 µM
[6]
  GI50: 76.8 µM
  TGI: > 100 µM
[7]
  GI50: 19.7 µM
  TGI: 44.1 µM
[8]
  GI50: 19.1 µM
  TGI: 36.6 µM
[9]
  GI50: 17 µM
  TGI: 30.7 µM
[10]
  GI50: 31.7 µM
  TGI: > 100 µM
[11]
  GI50: 18.9 µM
  TGI: 46.3 µM
[12]
  GI50: 59.1 µM
  TGI: > 100 µM
[13]
  GI50: 19.6 µM
  TGI: 38 µM
[14]
  GI50: 17.7 µM
  TGI: 33.9 µM
[15]
  GI50: 33.2 µM
  TGI: > 100 µM
[16]
  GI50: 18.6 µM
  TGI: 41.6 µM
[17]
  GI50: 31.9 µM
  TGI: 93.5 µM
[18]
  GI50: 32.4 µM
  TGI: > 100 µM
[19]
  GI50: 19.9 µM
  TGI: 42.6 µM
[20]
  GI50: > 100 µM
  TGI: > 100 µM
[21]
  GI50: 14.6 µM
  TGI: 41.1 µM
[22]
  GI50: 96.3 µM
  TGI: > 100 µM
[23]
  GI50: 42.1 µM
  TGI: > 100 µM
[24]
  GI50: 18.8 µM
  TGI: 38.8 µM
[25]
  GI50: 19 µM
  TGI: 47.2 µM
[26]
  GI50: > 100 µM
  TGI: > 100 µM
[27]
  GI50: 21.8 µM
  TGI: 72.7 µM
[28]
  GI50: 29.6 µM
  TGI: 83.6 µM
[29]
  GI50: 26.7 µM
  TGI: 90.5 µM
[30]
  GI50: 39.8 µM
  TGI: > 100 µM
[31]
  GI50: 17 µM
  TGI: 31.3 µM
[32]
  GI50: > 100 µM
  TGI: > 100 µM
[33]
  GI50: 16.5 µM
  TGI: 33.1 µM
[34]
  GI50: 18.7 µM
  TGI: 35 µM
[35]
  GI50: 16.4 µM
  TGI: 36.3 µM
[36]
  GI50: 16.7 µM
  TGI: 46.9 µM
[37]
  GI50: 14.5 µM
  TGI: 36.9 µM
[38]
  GI50: 20.5 µM
  TGI: 42.5 µM
[39]
  GI50: 16.2 µM
  TGI: 30 µM
[40]
  GI50: 17.3 µM
  TGI: 32.1 µM
[41]
  GI50: 18.6 µM
  TGI: 33.8 µM
[42]
  GI50: 20 µM
  TGI: 43.8 µM
[43]
  GI50: 41.7 µM
  TGI: > 100 µM
[44]
  GI50: 19.8 µM
  TGI: 40.2 µM
[45]
  GI50: 46.5 µM
  TGI: > 100 µM
[46]
  GI50: 17.2 µM
  TGI: 34.3 µM
[47]
  GI50: 59.8 µM
  TGI: > 100 µM
[48]
  GI50: 15.6 µM
  TGI: 29 µM
[49]
  GI50: 24 µM
  TGI: 52.8 µM
[50]
  GI50: 6.32 µM
  TGI: 59.6 µM
[51]
  GI50: 18.1 µM
  TGI: 36.3 µM
[52]
  GI50: 16.5 µM
  TGI: 40 µM
[53]
  GI50: 19.2 µM
  TGI: 36.6 µM
[54]
  GI50: 20.6 µM
  TGI: 39.7 µM
[55]
  GI50: 18.2 µM
  TGI: 35.3 µM
[56]
  GI50: 18.3 µM
  TGI: 38.4 µM
[57]
  GI50: 19.3 µM
  TGI: 44.7 µM
